# PubChem BioAssay AID1033 (Sanford-Burnham Center for Chemical Genomics, 2008)
# Calls of active or inactive are those of the source. No rule for the calls is given here.
# Biological target: Chaperone protein DnaK (Escherichia coli (strain K12)) (UniProt P0A6Y8)
# Assay: binders of DnaK substrate-binding domain, biophysical, NMR, chaperone (AID 1033)
# Conditions: Purified DnaK SBD, NMR ligand binding
# Sequence of Chaperone protein DnaK (Escherichia coli (strain K12)) (P0A6Y8 whole entry, looked up, the tested form may be a part): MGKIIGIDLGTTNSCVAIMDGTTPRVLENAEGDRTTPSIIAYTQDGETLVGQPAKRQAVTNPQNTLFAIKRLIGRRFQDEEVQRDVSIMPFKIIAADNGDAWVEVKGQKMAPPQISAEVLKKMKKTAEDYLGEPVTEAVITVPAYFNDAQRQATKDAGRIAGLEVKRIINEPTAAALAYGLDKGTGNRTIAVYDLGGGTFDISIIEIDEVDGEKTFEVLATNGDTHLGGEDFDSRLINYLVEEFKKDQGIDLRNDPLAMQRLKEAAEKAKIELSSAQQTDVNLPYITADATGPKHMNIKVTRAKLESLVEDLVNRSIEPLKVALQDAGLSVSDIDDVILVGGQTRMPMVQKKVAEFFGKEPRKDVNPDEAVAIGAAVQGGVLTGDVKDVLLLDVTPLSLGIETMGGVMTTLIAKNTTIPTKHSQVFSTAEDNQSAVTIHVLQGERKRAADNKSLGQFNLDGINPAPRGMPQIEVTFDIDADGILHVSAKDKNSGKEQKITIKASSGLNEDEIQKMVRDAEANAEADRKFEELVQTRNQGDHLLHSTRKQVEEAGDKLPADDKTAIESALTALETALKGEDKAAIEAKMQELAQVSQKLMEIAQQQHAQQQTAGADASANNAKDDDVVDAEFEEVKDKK
row,SMILES,Kd
1,Cc1n[nH]c(=S)n(/N=C/c2cccs2)c1=O,> 4 mM (inactive)
2,COC(=O)c1nc(-c2ccccc2)oc1N(C)C,> 4 mM (inactive)
3,CC(=O)Nc1ccc(Oc2nc(C)cc(C)n2)cc1,> 4 mM (inactive)
4,O=C(O)c1cccc(CSc2ncccn2)c1,> 4 mM (inactive)
5,CC(C)=CC(=O)Nc1ccccc1C(N)=O,> 4 mM (inactive)
6,O=C(NN1CCOCC1)c1cccs1,> 4 mM (inactive)
7,Cc1cc(C)n(CCCC(=O)O)n1,> 4 mM (inactive)
8,COC(=O)Cc1cc(=O)n(-c2nc3ccccc3s2)[nH]1,> 4 mM (inactive)
9,CSc1ccccc1NC(=O)c1ccncc1,> 4 mM (inactive)
10,CC(C)C(=O)NC(=S)N1CCOCC1,> 4 mM (inactive)
11,CC(O)c1nc2ccccc2[nH]1 (stereo not drawn),> 4 mM (inactive)
12,COc1ccc(-c2coc3c(O)c(OC)ccc3c2=O)cc1,> 4 mM (inactive)
13,CC1(C)CN=C(Nc2nc3ccccc3s2)S1,> 4 mM (inactive)
14,N#CCSc1nc2ccccc2c(=O)n1-c1ccccc1,> 4 mM (inactive)
15,c1ccc(-n2nnnc2Oc2cccc3cccnc23)cc1,> 4 mM (inactive)
16,O=[N+]([O-])c1c[n+]([O-])n(-c2ccccc2)n1,> 4 mM (inactive)
17,COc1cc(OC)c2c(c1Cl)OC1(C2=O)C(O)=CC(=O)CC1C (stereo not drawn),> 4 mM (inactive)
18,O=C(O)Cn1cnc2ccccc2c1=O,> 4 mM (inactive)
19,Cc1cccc(NC(=O)NC(N)=O)c1,> 4 mM (inactive)
20,Cc1c(C(=O)Nn2cnnc2)oc2ccccc12,> 4 mM (inactive)
21,Cn1nnc2cc(C(=O)NCc3ccco3)ccc21,> 4 mM (inactive)
22,NC(=O)c1ccccc1N1CCCCC1,> 4 mM (inactive)
23,CC(C)CNc1cc(=O)n(C)c(=O)n1C,> 4 mM (inactive)
24,CCC(CO)NC(=O)c1snnc1C (stereo not drawn),> 4 mM (inactive)

row,SMILES,Kd
1,Nc1ccc(C2SCCS2)cc1,> 4 mM (inactive)
2,CC(=O)N1CCC(NC2CCCCCC2)CC1,> 4 mM (inactive)
3,Cc1cc(C(=O)Nc2sc(C)c(C)c2C#N)no1,> 4 mM (inactive)
4,COC(=O)c1ccccc1C,> 4 mM (inactive)
5,Cc1nn(CC(=O)Nc2ccccn2)c(=O)c2ccccc12,> 4 mM (inactive)
6,Cc1cc(C(=O)Nc2ccc3c(c2)OCCO3)c(C)o1,> 4 mM (inactive)
7,O=C1NC(=O)C(=Cc2ccccc2)C(=O)N1,> 4 mM (inactive)
8,OC[C@H]1O[C@@H](O[C@H]2[C@H](O)[C@@H](O)[C@@H](O)O[C@@H]2CO)[C@H](O)[C@@H](O)[C@@H]1O,> 4 mM (inactive)
9,CC(C)=CCC1=C(O)c2ccccc2C(=O)C1=O,> 4 mM (inactive)
10,CN=C(C)c1c(O)n(C)c(=O)n(C)c1=O,> 4 mM (inactive)
11,CCOc1ccc(C(=O)c2ccncc2)cc1,> 4 mM (inactive)
12,COc1cccc(N2CCN(C(=O)c3cccnc3)CC2)c1,> 4 mM (inactive)
13,COc1cc2c(cc1OC)C(C)NCC2 (stereo not drawn),> 4 mM (inactive)
14,O=C(Oc1ccc2c(c1)CCC2)N1CCOCC1,> 4 mM (inactive)
15,O=C1CC(=O)N2N=C(c3ccccc3)SC2=N1,> 4 mM (inactive)
16,O=C(O)c1cccnc1,> 4 mM (inactive)
17,O=C1N/C(=N\c2ccccn2)SC1Cc1ccccc1 (stereo not drawn),> 4 mM (inactive)
18,COCc1cc(C)nc2sc(C(=O)OC)c(N)c12,> 4 mM (inactive)
19,CN(Cc1nc2ccccc2n1C)C(=O)c1cccs1,> 4 mM (inactive)
20,Nc1cccc(NC(=O)c2cccs2)c1,> 4 mM (inactive)
21,c1ccc(Cc2nnc(-c3ccccc3)o2)cc1,> 4 mM (inactive)
22,COc1cccc(NC(=O)c2ocnc2C)c1,> 4 mM (inactive)
23,CC(=O)Nc1ccc(S(=O)(=O)Nc2cc(C)on2)cc1,> 4 mM (inactive)
24,Cn1c(SCC(N)=O)nnc1-c1cccnc1,> 4 mM (inactive)

row,SMILES,Kd
1,COc1cc2c3cc1Oc1c(OC)c(OC)cc4c1[C@@H](Cc1cccc(c1)Oc1ccc(c(O)c1)C[C@@H]3N(C)CC2)N(C)CC4,> 4 mM (inactive)
2,CCOC(=O)CNc1ncnc2c1nnn2CC,> 4 mM (inactive)
3,O=C1CC(=O)N(Cc2ccco2)C(=S)N1,> 4 mM (inactive)
4,Cn1c(O)c(/C=C2\C=CC=N2)c(=O)[nH]c1=S,> 4 mM (inactive)
5,Cn1ccc(NC(=S)Nc2cccc([N+](=O)[O-])c2)n1,> 4 mM (inactive)
6,C/C=C(/C)C(=O)O[C@@H]1Cc2c(ccc3ccc(=O)oc23)OC1(C)C,> 4 mM (inactive)
7,Cc1cc(C)nc(N(C#N)Cc2ccccc2)n1,> 4 mM (inactive)
8,CC(C)Oc1ccc(NC(N)=O)cc1,> 4 mM (inactive)
9,O=C(/C=C/c1ccccc1)NC1CCS(=O)(=O)C1 (stereo not drawn),> 4 mM (inactive)
10,NC(CCC(=O)Nc1ccc([N+](=O)[O-])cc1)C(=O)O (stereo not drawn),> 4 mM (inactive)
11,CN1CCC[C@H]1c1cccnc1,> 4 mM (inactive)
12,CC(=O)O[C@H]1C[C@@H](OC(C)=O)C(C)(C)C2C[C@@H](OC(C)=O)[C@]3(C)C(CC[C@@]4(C)[C@H](c5ccoc5)OC(=O)[C@H]5O[C@]543)[C@]21C (stereo partly drawn),> 4 mM (inactive)
13,CC(=O)Oc1ccc(N2C(=O)C3C4C=CC(O4)C3C2=O)cc1 (stereo not drawn),> 4 mM (inactive)
14,Nc1ccc2ncsc2c1,> 4 mM (inactive)
15,C=C1CCC(C2CC(=O)OC2=O)C(=O)CCC2C1CC2(C)C (stereo not drawn),> 4 mM (inactive)
16,C=Cc1c(C)c2cc3[nH]c(cc4nc(cc5nc(cc1[nH]2)C(C)=C5CCC(=O)O)C(CCC(=O)O)=C4C)c(C)c3C=C,> 4 mM (inactive)
17,CC(=O)N1CCN(c2ccc(N)cc2)CC1,> 4 mM (inactive)
18,NC(=O)c1cc2c(n(-c3ccccc3)c1=O)CCCC2=O,> 4 mM (inactive)
19,CC(C)(O)P(C)(=O)c1ccccc1 (stereo not drawn),> 4 mM (inactive)
20,O=c1[nH]oc2ccccc12,> 4 mM (inactive)
21,CC(C)c1c(O)ccc2c1CCC1[C@@](C)(C=O)CCC[C@]21C (stereo partly drawn),> 4 mM (inactive)
22,CC(=O)Nc1ccc(NC(C)=O)c(C(F)(F)F)c1,> 4 mM (inactive)
23,Cc1cc(C(=O)Nc2ccon2)cs1,> 4 mM (inactive)
24,O=C(NCc1cccc(Cl)c1)c1cnccn1,> 4 mM (inactive)

row,SMILES,Kd
1,Nc1cccc2nsnc12,> 4 mM (inactive)
2,COc1c(CC=C(C)C)c2c(c3oc(=O)c(-c4ccc(O)cc4)c(O)c13)C=CC(C)(C)O2,> 4 mM (inactive)
3,COC1C=CC23c4cc5c(cc4CN(CC2O)[C@@H]3C1)OCO5 (stereo partly drawn),> 4 mM (inactive)
4,COC1CC(O[C@H]2CC[C@]3(C=O)C4CC[C@]5(C)C(C6=CC(=O)OC6)CC[C@]5(O)C4CC[C@]3(O)C2)OC(C)C1O (stereo partly drawn),> 4 mM (inactive)
5,COc1cc([C@H]2Oc3cc([C@H]4Oc5cc(O)cc(O)c5C(=O)[C@@H]4O)ccc3O[C@@H]2CO)ccc1O,> 4 mM (inactive)
6,O=C(Nc1cccnc1)Nc1ccc2c(c1)OCO2,> 4 mM (inactive)
7,O=C(O)C1Cc2ccccc2N1 (stereo not drawn),> 4 mM (inactive)
8,CC(=O)NC(O)C(=O)c1ccccc1 (stereo not drawn),> 4 mM (inactive)
9,COc1ccccc1NC(=O)C1CCC(=O)N1 (stereo not drawn),> 4 mM (inactive)
10,Nc1nonc1-c1nc2ccccc2[nH]1,> 4 mM (inactive)
11,OCC1CCCCCN1 (stereo not drawn),> 4 mM (inactive)
12,Nc1csc(C(=O)O)c1,> 4 mM (inactive)
13,COc1cccc2c1CCC1=CC(=O)CC[C@@]12C,> 4 mM (inactive)
14,O=C(NC(=S)NC1CCS(=O)(=O)C1)c1ccccc1 (stereo not drawn),> 4 mM (inactive)
15,Cc1ccc(C)n1CCN1CCNCC1,> 4 mM (inactive)
16,CCC(C)C(=O)OC1[C@@H]2CC3=C4CC(=O)O[C@@H](c5ccoc5)[C@]4(C)CCC3C(C)(C2=O)[C@@H](CC(=O)OC)C1(C)C (stereo partly drawn),> 4 mM (inactive)
17,Cc1cc2c(nn1)CCc1nonc1-2,> 4 mM (inactive)
18,CC(=O)c1ccc(Cc2cnc(N)s2)cc1,> 4 mM (inactive)
19,NC(=O)c1ccsc1NC(=O)C1=COCCO1,> 4 mM (inactive)
20,Cc1cc(C(=O)NCc2cccs2)c(C)o1,> 4 mM (inactive)
21,COc1ccc(C(C)=O)c(O)c1,> 4 mM (inactive)
22,O=C1CC(=O)N(c2ccccc2)c2ccccc21,> 4 mM (inactive)
23,COc1c2ccoc2cc2oc(=O)ccc12,> 4 mM (inactive)
24,O=c1c[n+]([O-])c2ccccc2n1OCc1ccccn1,> 4 mM (inactive)

row,SMILES,Kd
1,O=C1CC(=O)N(c2ccccc2)C(=O)N1,> 4 mM (inactive)
2,CC(C)(C#N)O[C@@H]1O[C@H](CO)[C@@H](O)[C@H](O)[C@H]1O,> 4 mM (inactive)
3,C=CCc1cc(C(=O)N2CCCCC2)ccc1O,> 4 mM (inactive)
4,Cc1c(N=CN2CCOCC2)c(=O)n(C)c(=O)n1C,> 4 mM (inactive)
5,Cc1nc(-c2ccccc2)sc1C(N)=O,> 4 mM (inactive)
6,C(=Nn1cnnc1)c1ccccc1,> 4 mM (inactive)
7,CC(C)c1c(O)c(-c2cc3c(c(C(C)C)c2O)CCC2C(C)(C)CCC[C@]32C)cc2c1CCC1C(C)(C)CCC[C@]21C (stereo partly drawn),> 4 mM (inactive)
8,COC(=O)c1cc2ccccc2cn1,> 4 mM (inactive)
9,NC(=O)C1(S(=O)(=O)c2ccccc2)CC1,> 4 mM (inactive)
10,NC(=S)NC1CCS(=O)(=O)C1 (stereo not drawn),> 4 mM (inactive)
11,COc1cc(OC)c2ccc(=O)oc2c1,> 4 mM (inactive)
12,CN=C(C)c1c(O)n(C)c(=S)n(C)c1=O,> 4 mM (inactive)
13,CC(=O)OCC[C@H](C)CCC=C(C)C,> 4 mM (inactive)
14,CCOC(=O)c1cnc2n(c1=O)CCS2,> 4 mM (inactive)
15,CC(C)n1c(Nn2cnnc2)nc2ccccc21,> 4 mM (inactive)
16,Nc1cc2ccccc2cn1,> 4 mM (inactive)
17,COc1cccc(/C=C2/SC(N)=NC2=O)c1,> 4 mM (inactive)
18,Cc1cc(C)nc(NC(N)=NCc2ccco2)n1,> 4 mM (inactive)
19,N#CCCn1ccnc1-c1ccccc1,> 4 mM (inactive)
20,COc1ccccc1NC(=O)c1ccc(C)s1,> 4 mM (inactive)
21,c1ccc(SCc2nc(-c3ccncc3)no2)cc1,> 4 mM (inactive)
22,Cc1nc(SCC#N)c2c3c(sc2n1)CCC3,> 4 mM (inactive)
